According to EP4786468A1, “CRYSTALLINE FORM OF HDAC6 INHIBITOR AND PREPARATION METHOD THEREFOR” (Suzhou Genhouse Bio Co., Ltd., priority 2023, dated 2025):
In brackets after ≈: the same amount, converted by molar mass.

How the values were obtained:
[1] = Phase I metabolic stability in liver microsomes; type: in vitro ADME, beagle dogs; settings: DLM
Description: (§1) Evaluation of the Phase I metabolic stability of the test compound in liver microsomes from CD-1 mice (MLM), Sprague-Dawley rats (RLM), beagle dogs (DLM), cynomolgus monkeys (CLM), and humans (HLM).
(§2) The animal and human liver microsomes used in this test system were purchased from Xenotech, Corning, or other qualified suppliers and stored in a freezer below -60°C before use.
(§3) The test and control compounds were incubated with animal and human liver microsomes at 37±1°C for a certain period, with a maximum incubation time of 60 minutes. Samples were taken at specified time points, and the reaction was terminated with acetonitrile or other organic solvents containing an internal standard. After centrifugation, the resulting supernatant was analyzed using liquid chromatography-tandem mass spectrometry (LC-MS/MS).
(§4) 73.21 g of dipotassium hydrogen phosphate trihydrate and 10.78 g of potassium dihydrogen phosphate were dissolved in 4000 mL of ultrapure water. The pH of the solution was adjusted to 7.40±0.10 using 10% phosphoric acid or 1 M potassium hydroxide, with a final concentration of 100 mM. […]
(§5) Sample analysis was performed using liquid chromatography-tandem mass spectrometry (LC-MS/MS), without calibration curves and quality control samples. Semi-quantitative determination was performed using the ratio of the analyte peak area to the internal standard peak area. […]

HDAC1 = molecular target: T1, HDAC1 (Homo sapiens, UniProt Q13547); assay: HDAC subtype enzyme activity assay; type: biochemical; settings: read-out: HDAC1 Inhibition Rate/%
T1 construct: purchased BPS
Description: (§7) The IC50 was obtained by fitting with GraphPad Prism 7.0 software.

[2] = Mouse brain-to-plasma drug concentration ratio; type: in vivo, mice
Description: The actual body weight of the mice was measured on the day of dosing and the dose volume was calculated. Each group consisted of 9 mice. The compound was administered as a single intravenous (IV) injection or a single oral gavage (PO). Whole blood samples were collected via orbital bleeding at specified time points. After blood collection, samples were immediately transferred to labeled commercial tubes containing K2-EDTA (0.85-1.15 mg), then centrifuged (3200 x g, 4°C, 10 minutes) to obtain plasma. The plasma was transferred to pre-cooled centrifuge tubes, flash-frozen on dry ice, and stored in an ultra-low temperature freezer at -60°C or lower until LC-MS/MS analysis. 20 µL of plasma sample or brain tissue homogenate was added to 80 µL of internal standard solution (50 ng/mL propafenone in acetonitrile). The plate was sealed at 165 °C using a plate sealer, vortexed for 10 min on a microplate shaker (maximum speed), and centrifuged at 4000 rpm for 20 min using a low-speed benchtop centrifuge. 10 µL of the supernatant was transferred and mixed with 90 µL of acetonitrile. After vortex mixing, the plate was sealed at 165 °C, vortexed again, and 1 µL of the supernatant was taken for LC-MS/MS analysis. The plasma concentration data of the compound were processed using a non-compartmental model with WinNonlin Version 6.3 (Pharsight, Mountain View, CA) pharmacokinetic software. Relevant pharmacokinetic parameters were calculated using the linear log trapezoidal method.

[3] = Phase I metabolic stability in liver microsomes; type: in vitro ADME, humans; settings: HLM
Description: as §1, §2, §3, §4, §5

HDAC6 = molecular target: T2, HDAC6 (Homo sapiens, UniProt Q9UBN7); assay: HDAC6 enzyme activity assay (fluorogenic substrate Ac-GAK(Ac)-AMC); type: biochemical; settings: HDAC6 (Abcam), 20 µM substrate, 37°C 30 min
T2 construct: purchased Abcam
T2 sequence (Q9UBN7 1-1215): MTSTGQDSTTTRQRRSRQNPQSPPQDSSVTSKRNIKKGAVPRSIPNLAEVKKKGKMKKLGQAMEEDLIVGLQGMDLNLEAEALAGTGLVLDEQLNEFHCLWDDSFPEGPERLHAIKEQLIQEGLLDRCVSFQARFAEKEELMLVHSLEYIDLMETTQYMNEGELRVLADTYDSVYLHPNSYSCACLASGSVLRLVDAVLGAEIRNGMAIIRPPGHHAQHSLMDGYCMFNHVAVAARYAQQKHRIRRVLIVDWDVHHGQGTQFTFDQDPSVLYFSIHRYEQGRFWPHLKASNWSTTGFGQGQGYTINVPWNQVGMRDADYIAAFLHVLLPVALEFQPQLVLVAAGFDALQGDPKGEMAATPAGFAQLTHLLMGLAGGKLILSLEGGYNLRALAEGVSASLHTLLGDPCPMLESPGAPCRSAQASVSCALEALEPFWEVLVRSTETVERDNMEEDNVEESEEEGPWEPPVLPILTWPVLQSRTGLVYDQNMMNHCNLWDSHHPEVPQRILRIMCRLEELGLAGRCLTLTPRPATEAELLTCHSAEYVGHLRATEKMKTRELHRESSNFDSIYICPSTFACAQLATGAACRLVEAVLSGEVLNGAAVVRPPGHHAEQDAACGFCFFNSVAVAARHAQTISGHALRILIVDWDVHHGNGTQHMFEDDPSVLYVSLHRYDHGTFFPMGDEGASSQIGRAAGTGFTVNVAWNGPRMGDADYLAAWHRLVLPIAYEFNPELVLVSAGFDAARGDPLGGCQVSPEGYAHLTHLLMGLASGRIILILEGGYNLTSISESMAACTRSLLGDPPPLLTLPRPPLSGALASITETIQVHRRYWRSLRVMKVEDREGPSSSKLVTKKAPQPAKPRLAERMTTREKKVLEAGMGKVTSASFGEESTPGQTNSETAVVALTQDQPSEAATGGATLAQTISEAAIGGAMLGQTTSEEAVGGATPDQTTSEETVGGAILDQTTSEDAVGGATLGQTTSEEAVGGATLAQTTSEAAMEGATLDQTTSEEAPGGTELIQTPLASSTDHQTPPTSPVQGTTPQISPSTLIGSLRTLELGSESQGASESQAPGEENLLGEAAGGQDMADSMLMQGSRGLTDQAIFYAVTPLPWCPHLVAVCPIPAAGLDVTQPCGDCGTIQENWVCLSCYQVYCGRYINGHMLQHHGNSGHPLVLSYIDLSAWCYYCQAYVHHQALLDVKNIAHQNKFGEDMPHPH
Description: as §7

[4] = Phase I metabolic stability in liver microsomes; type: in vitro ADME, cynomolgus monkeys; settings: CLM
Description: as §1, §2, §3, §4, §5

[5] = Phase I metabolic stability in liver microsomes; type: in vitro ADME, CD-1 mice; settings: MLM
Description: as §1, §2, §3, §4, §5

[6] = Phase I metabolic stability in liver microsomes; type: in vitro ADME, Sprague-Dawley rats; settings: RLM
Description: as §1, §2, §3, §4, §5

[7] = Mouse pharmacokinetic test (IV and PO); type: in vivo; settings: BALB/c mice
Description: This experimental example tested the pharmacokinetic behavior of the compound in BALB/c mice after intravenous (IV) and oral (PO) administration.
The actual body weight of the mice was measured on the day of dosing and the dose volume was calculated. Each group consisted of 3 mice. The compound was tested in two groups: one group received a single intravenous injection, and the other group received a single oral gavage. Whole blood samples were collected via orbital bleeding at specified time points (0.25, 0.5, 1, 2, 4, 8, 24h post-dose). After blood collection, samples were immediately transferred to labeled commercial tubes containing K2-EDTA (0.85-1.15 mg), then centrifuged (3200 x g, 4°C, 10 minutes) to obtain plasma. The plasma was transferred to pre-cooled centrifuge tubes, flash-frozen on dry ice, and stored in an ultra-low temperature freezer at -60°C or lower until LC-MS/MS analysis.
Plasma concentrations were determined using an LC-MS/MS method. […] Relevant pharmacokinetic parameters were calculated using the linear log trapezoidal method. Table 9: Mouse Pharmacokinetic Test Experimental Data

[8] = Solubility in water (HPLC); type: physicochemical; settings: H2O, 37°C
Description: (§6) The vial was stirred and observed in a 37°C water bath. If the sample dissolved completely, more sample was added until undissolved material remained after rotary mixing. The sample vial was sealed and stirred in a 37°C water bath for 24h, then centrifuged. The supernatant was filtered and the solubility was measured by HPLC.

[9] = Stability of the crystal form under accelerated conditions (XRPD, HPLC); type: physicochemical; settings: for % Area: chemical stability
Description: Solid samples separated under different conditions were evaluated for physical stability via XRPD testing for crystalline form and for chemical stability via HPLC testing for purity.
Appropriate amounts of crystal form I samples were taken and subjected to a stability experiment under accelerated conditions of 40 °C/75%RH/open/1 month. Physical stability was evaluated by XRPD testing. Table 14: Stability of crystal form I

[10] = Dynamic solubility in biorelevant media (HPLC); type: physicochemical; settings: 37°C
Description: FaSSGF (Fasted State Simulated Gastric Fluid), FeSSGF (Fed State Simulated Gastric Fluid), FaSSIF (Fasted State Simulated Intestinal Fluid), and FeSSIF (Fed State Simulated Intestinal Fluid) are biorelevant media. These media better reflect the impact of the gastrointestinal physiological environment on drug release. Solubility tested in these media is closer to solubility in the human body environment.
as §6, with “HPLC. Table 13: Dynamic Solubility of Crystal Forms in Biorelevant Media” for “HPLC.”

[11] = 60 min, buffer instead of NADPH regeneration system
[12] = 60 min with NADPH regeneration system

T1 sequence (Q13547 whole entry, species assumed): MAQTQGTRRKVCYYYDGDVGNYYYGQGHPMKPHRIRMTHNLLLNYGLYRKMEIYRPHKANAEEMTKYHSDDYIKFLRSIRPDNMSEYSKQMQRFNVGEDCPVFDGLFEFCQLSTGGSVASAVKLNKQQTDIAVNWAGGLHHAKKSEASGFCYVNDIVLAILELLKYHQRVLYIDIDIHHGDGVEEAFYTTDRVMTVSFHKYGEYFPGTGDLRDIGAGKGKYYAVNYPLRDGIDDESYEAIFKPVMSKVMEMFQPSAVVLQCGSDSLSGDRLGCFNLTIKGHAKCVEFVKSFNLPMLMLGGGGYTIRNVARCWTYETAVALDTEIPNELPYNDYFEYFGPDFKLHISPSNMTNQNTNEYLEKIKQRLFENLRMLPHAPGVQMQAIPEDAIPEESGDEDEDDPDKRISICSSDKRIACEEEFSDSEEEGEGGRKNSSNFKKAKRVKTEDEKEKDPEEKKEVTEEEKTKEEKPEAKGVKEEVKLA

O=C(N[C@@H]1CCCC[C@H]1N1Cc2ccc(-c3nnc(C(F)F)o3)cc2S1(=O)=O)C(F)F [I]
Remaining Rate (NCF=60 min) [1, 11]: 90.9%
Remaining Rate (T=60 min) [1, 12]: 85.8%
inhibition at 1 µM (HDAC1): -11.9%
inhibition at 10 µM (HDAC1): -3.91%
Brain Drug Concentration ([2]; 2 mg/kg IV, 1 h): 0.268 µg/mL
Plasma Drug Concentration ([2]; 2 mg/kg IV, 1 h): 1.09 µg/mL
Brain Drug Concentration ([2]; 2 mg/kg IV, 4 h): 0.149 µg/mL
Plasma Drug Concentration ([2]; 2 mg/kg IV, 4 h): 0.595 µg/mL
Brain Drug Concentration ([2]; 10mg/kg PO, 1 h): 0.882 µg/mL
Plasma Drug Concentration ([2]; 10mg/kg PO, 1 h): 4.993 µg/mL
Brain Drug Concentration ([2]; 10mg/kg PO, 4 h): 0.435 µg/mL
Plasma Drug Concentration ([2]; 10mg/kg PO, 4 h): 2.833 µg/mL
Remaining Rate (NCF=60 min) [3, 11]: 97.3%
Remaining Rate (T=60 min) [3, 12]: 86.1%
IC50 (HDAC6): 5.7 nM
Remaining Rate (NCF=60 min) [4, 11]: 101.5%
Remaining Rate (T=60 min) [4, 12]: 88.8%
Remaining Rate (NCF=60 min) [5, 11]: 99.8%
Remaining Rate (T=60 min) [5, 12]: 84.8%
Remaining Rate (NCF=60 min) [6, 11]: 93.0%
Remaining Rate (T=60 min) [6, 12]: 76.4%
CLz ([7]; IV@2mg/kg): 0.36 L/h/kg
t1/2z ([7]; IV@2mg/kg): 60.6 min
F ([7]; PO@10mg/kg): 123.92%
t1/2z ([7]; PO@10mg/kg): 97.2 min
F ([7]; PO@30mg/kg): 96.93%
t1/2z ([7]; PO@30mg/kg): 52.2 min
F ([7]; PO@100mg/kg): 95.71%
t1/2z ([7]; PO@100mg/kg): 48.6 min

O=C(N[C@@H]1CCCC[C@H]1N1Cc2ccc(-c3nnc(C(F)F)o3)cc2S1(=O)=O)C(F)F [Crystal Form I]
solubility at 24 h [8]: 0.0498 mg/mL (≈ 108 µM)
XRPD characteristic peaks (physical stability) ([9]; 40 °C/75%RH/open/1 month): remained unchanged
% Area ([9]; 40 °C/75%RH/open/1 month, HPLC peak of Compound of formula (I)): 99.51 % Area
% Area ([9]; T0, HPLC peak of Compound of formula (I)): 99.51 % Area
solubility at 1 h ([10]; FaSSGF): 0.0345 mg/mL (≈ 74.6 µM)
solubility at 24 h ([10]; FaSSGF): 0.0519 mg/mL (≈ 112 µM)
solubility at 24 h ([10]; FaSSIF): 0.0962 mg/mL (≈ 208 µM)
solubility at 1 h ([10]; FeSSGF): 0.0455 mg/mL (≈ 98.4 µM)
solubility at 24 h ([10]; FeSSGF): 0.055 mg/mL (≈ 119 µM)
solubility at 24 h ([10]; FeSSIF): 0.0875 mg/mL (≈ 189 µM)
